Measurements as given in patent publication US11918568B2, “Fused ring compound having urea structure” (DAIICHI SANKYO COMPANY, LIMITED, priority 2018, dated 2024).
Entries after “also recorded” stand apart in the source; their conditions may differ.

Key:
HEK293A cells = assay: Effect of NAMPT activator on the intracellular NAD+ level (in vitro cell-based assay); details: HEK293-A, 3 h culture with compound, NAD+/NADH-Glo assay, read-out: EC50 (intracellular NAD+ content)
Protocol: HEK293A cells were cultured in Dulbecco's Modified Eagle Medium (DMEM (high glucose)) containing 10% fetal bovine serum (FBS), non-essential amino acid (NEAA), and antibiotic-antimycotic [reaction medium]. On the day before the test, HEK293A cells were inoculated at a ratio of 3.0×10^4 cells/80 μL to 96 well poly-D-lysine coated plate and cultured overnight in a CO2 incubator.
On the day of the test, each test compound diluted with reaction medium to a concentration of 5 times the final concentration was added at a ratio of 20 μL/well, and the cells were further cultured for 3 h. After removal of the medium, the cells were lysed in 50 μL/well of Bicarbonate Base Buffer (100 mM sodium carbonate, 20 mM sodium bicarbonate, 100 mM nicotinamide, 20 mM Triton X-100) containing 1% dodecyl trimethyl-ammonium bromide (DTAB). The NAD^+ content in the cell extract was measured using NAD^+/NADH-Glo assay kit according to the manufacturer's instructions. Hereinafter, the procedures will be briefly described. 20 μL of the lysate was separated, and 10 μL of 0.4 N HCL was added thereto, followed by incubation at 60° C. for 15 min and subsequently at 25° C. for 10 min. The mixture was neutralized by the addition of 10 μL of 0.5 M Trizma base solution and then diluted 10-fold with distilled water. 15 μL of the diluted sample was mixed with an equal amount (15 μL) of NAD^+/NADH-Glo reagent in 384 well black plate, and the mixture was incubated for 30 min in the dark. Then, chemiluminescence intensity was measured.
EC50 value of each compound was calculated from the calculated values of the compound at various concentrations using GraphPad Prism software (Table 2).

human NAMPT enzyme = human NAMPT enzyme (Homo sapiens (Human), UniProt P43490); assay: NAMPT enzyme activating effect (in vitro cell-free enzyme assay); format: biochemical; details: 2 ng/mL human NAMPT enzyme, 1-h incubation at 25° C., fluorescence of NMN derivative
Protocol: The NAMPT enzyme assay was conducted in accordance with the method of Formentini et al. […] Hereinafter, the procedures will be briefly described. The NAMPT enzyme reaction was carried out using polypropylene 384 well V shaped black plate (Greiner Bio One International GmbH). […] Then, 22 μL of 88% formic acid was added and the mixture was further incubated for 30 min in the dark. The NAMPT enzyme activity was calculated as the difference between fluorescence intensity (Ex 380 nm/Em 450 nm) from the reaction of a test compound treatment group and fluorescence intensity from control reaction free from the NAMPT enzyme. [NAMPT enzyme activity]=[Fluorescence intensity of the test substance treatment group]−[Mean fluorescence intensity of the control reaction free from the NAMPT enzyme] EC50 value of each compound was calculated from the enzyme activities of the compound at various concentrations by using GraphPad Prism software (GraphPad Software) (Table 1)

WKY rats = details: 5 mg/kg intraperitoneally 0.5 h before Main FST, vs vehicle control
C57BL/6N DIO mice [1] = assay: Energy expenditure in DIO mouse (oxygen consumption); format: in vivo; details: 100 mg/kg orally once a day, vs vehicle group
Protocol: 48-week-old male C57BL/6N DIO mice were divided into 2 groups each involving 4 mice. Each mouse was acclimatized for 3 d under individual housing and then fasted overnight. […] Oxygen consumptions (VO2) and carbon dioxide outputs (VCO2) were measured for approximately 73 h (approximately 9 h under fasting (on the order of 9:00 to 18:00) and approximately 64 h under feeding (on the order of 18:00 to 10:00 of two days later)) using Comprehensive Lab Animal Monitoring System (Columbus Instruments International Corp.).

C57BL/6N DIO mice [2] = assay: Anti-obesity effect (DIO mouse, free feeding); format: in vivo; details: DIO mice freely fed high-fat diet, 30 mg/kg orally once a day for 3 wk, vs vehicle group
Excerpt: 45-week-old male C57BL/6N DIO mice were each acclimatized for 1 wk under individual housing. Then, the mice were divided into 2 groups each involving 6 mice with their weights, amounts of weight change, and food intakes during the acclimatization period as indexes. Each mouse was freely fed a purified high-fat diet (D12451) for 3 wk under individual rearing. […] The weight was compared between the test groups.

C57BL/6N mice [3] = assay: Tissue NAD+ level in normal mice; format: in vivo, mouse; details: normal C57BL/6N mice, 30 or 100 mg/kg orally, 24 h after administration, LC/MS
Protocol: (§1) 24 h after the administration, each mouse was sacrificed by exsanguination. The liver, gastrocnemius, soleus, and brown adipose tissues were harvested. Each tissue was homogenized with a 10- or 100-fold amount of 2 M perchloric acid per its weight. Then, the samples were centrifuged and the supernatant was neutralized with 5 M […]. After removal of potassium perchlorate, the NAD^+ concentration in the supernatant of sample was measured using LC/MS.

C57BL/6N DIO mice [4] = assay: Tissue NAD+ level in DIO mouse - 2 (major tissues); format: in vivo; details: 30 mg/kg orally, 24 h after administration, LC/MS
Protocol: as §1, with “exanguination.” for “exsanguination.”, “heart, kidney, spleen, lung,” for “liver, gastrocnemius, soleus,”, “white” for “brown”, “harvested. For a control, the same organs as above were harvested from 8-week-old male C57BL/6N mice.” for “harvested.”

C57BL/6N DIO mice [5] = assay: Tissue NAD+ level in diet-induced obese (DIO) mice; format: in vivo, mouse; details: 30 or 100 mg/kg orally, 24 h after administration, LC/MS
Protocol: as §1

C57BL/6N mice [6] = assay: NAD+ level in retina (normal mouse); format: in vivo; details: normal C57BL/6N mice, 30 mg/kg orally, 4 h after administration, LC/MS
Protocol: 4 h after the administration, each mouse was sacrificed by exanguination. The retina was harvested from both eyes. The retina (4 eye pools per sample) was homogenized with a 100-fold amount of 2 M perchloric acid per retinal tissue weight. Then, the samples were centrifuged and the supernatant was neutralized with 5 M […]. After removal of potassium perchlorate, the NAD^+ concentration in the supernatant sample was measured using LC/MS.

Chain of human NAMPT enzyme (P43490 whole entry): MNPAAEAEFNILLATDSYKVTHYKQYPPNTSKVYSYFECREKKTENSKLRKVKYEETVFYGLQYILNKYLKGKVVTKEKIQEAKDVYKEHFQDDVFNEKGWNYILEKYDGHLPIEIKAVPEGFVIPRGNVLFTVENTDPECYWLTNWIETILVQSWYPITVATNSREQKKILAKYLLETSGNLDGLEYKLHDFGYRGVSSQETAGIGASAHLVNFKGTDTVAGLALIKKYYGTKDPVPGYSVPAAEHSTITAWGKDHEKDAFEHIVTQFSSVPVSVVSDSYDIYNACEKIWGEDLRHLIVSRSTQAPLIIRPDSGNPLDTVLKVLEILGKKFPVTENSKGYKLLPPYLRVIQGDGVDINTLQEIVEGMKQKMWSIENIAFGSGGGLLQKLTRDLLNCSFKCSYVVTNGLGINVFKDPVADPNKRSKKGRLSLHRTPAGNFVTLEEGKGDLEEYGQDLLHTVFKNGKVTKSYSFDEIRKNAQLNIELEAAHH

| Compound | EC50 (HEK293A cells) [nM] | EC50 (human NAMPT enzyme) [nM] | also measured |
| --- | --- | --- | --- |
| O=C(NCc1ccncc1)Nc1ccc2oc(-c3ccccc3)nc2c1 [Example 7, N-(2-Phenyl-1,3-benzoxazol-5-yl)-N′-[(pyridin-4-yl)methyl]urea] | 540 | 410 | – |
| Cc1ccccc1-c1nc2ccc(NC(=O)NCc3ccncc3)cc2o1 [Example 1, N-[2-(2-Methylphenyl)-1,3-benzoxazol-6-yl]-N′-[(pyridin-4-yl)methyl]urea] | 430 | 110 | – |
| CNC1(c2ccccc2Cl)CCCCC1=O (centres unmarked) [ketamine, Ketamine, reference compound] | – | – | immobility time in forced swimming test (WKY rats): significantly shortened the immobility time |
| N#Cc1c2ccc(NC(=O)NCc3ccncc3)cc2nn1-c1ccccc1 [Example 21, N-(3-Cyano-2-phenyl-2H-indazol-6-yl)-N′-[(pyridin-4-yl)methyl]urea] | 230 | 110 | – |
| O=C(NCc1ccncc1)Nc1ccc2nc(-c3ccccc3)nn2c1 [Example 8, N-(2-Phenyl[1,2,4]triazolo[1,5-a]pyridin-6-yl)-N′-[(pyridin-4-yl)methyl]urea] | 210 | 80 | – |
| CCN(CC)C(=O)c1noc2cc(NC(=O)NCc3ccncc3)ccc12 [Example 50, N,N-Diethyl-6-({[(pyridin-4-yl)methyl]carbamoyl}amino)-1,2-benzoxazole-3-carboxamide] | 450 | 240 | – |
| COc1cccc(C2Cc3ccc(NC(=O)NCc4ccncc4)cc3O2)c1 (centres unmarked) [Example 52, N-[2-(3-Methoxyphenyl)-2,3-dihydro-1-benzofuran-6-yl]-N′-[(pyridin-4-yl)methyl]urea] | 1240 | 80 | – |
| Cn1nccc1-c1c(-c2ccccc2)nn2cc(NC(=O)NCc3ccncc3)ccc12 [Example 22, N-[3-(1-Methyl-1H-pyrazol-5-yl)-2-phenylpyrazolo[1,5-a]pyridin-6-yl]-N′-[(pyridin-4-yl)methyl]urea] | 120 | 80 | – |
| O=C(NCc1ccncc1)Nc1ccc2nc(-c3ccccc3)oc2c1 [Example 2, N-(2-Phenyl-1,3-benzoxazol-6-yl)-N′-[(pyridin-4-yl)methyl]urea] | 190 | 50 | oxygen consumption (VO2) per weight (C57BL/6N DIO mice [1]): increased an oxygen consumption per weight; also recorded: increases oxygen consumption; body weight change (C57BL/6N DIO mice [2]): weight lowering effect; also recorded: decreases body weights; NAD+ levels in liver, gastrocnemius, soleus, and brown adipose tissues (C57BL/6N mice [3]): increases NAD^+ levels; NAD+ levels in major tissues (heart, kidney, spleen, lung, white adipose tissue) (C57BL/6N DIO mice [4]): NAD^+ levels were increased; also recorded: increases NAD^+ levels; NAD+ levels in liver, gastrocnemius, soleus, and brown adipose tissues (C57BL/6N DIO mice [5]): increases NAD^+ levels; NAD+ levels in retina (C57BL/6N mice [6]): NAD^+ levels were increased; also recorded: increases NAD^+ levels |
| Cn1cc(-c2nc3ccc(NC(=O)NCc4ccncc4)cc3o2)cn1 [Example 4, N-[2-(1-Methyl-1H-pyrazol-4-yl)-1,3-benzoxazol-6-yl]-N′-[(pyridin-4-yl)methyl]urea] | – | 980 | – |
| O=C(NCc1ccncc1)Nc1ccc2c(C(=O)N3CCCC3)n(-c3ccccc3)nc2c1 [Example 17, N-[2-Phenyl-3-(pyrrolidine-1-carbonyl)-2H-indazol-6-yl]-N′-[(pyridin-4-yl)methyl]urea] | – | 110 | – |
| CS(=O)(=O)c1cccc(-n2cc3ccc(NC(=O)NCc4ccncc4)cc3n2)c1 [Example 27, N-{2-[3-(Methanesulfonyl)phenyl]-2H-indazol-6-yl}-N′-[(pyridin-4-yl)methyl]urea] | – | 130 | – |
